# Experimental data reported in ChEMBL document CHEMBL4219173, “2,4-Diamino-8-quinazoline carboxamides as novel, potent inhibitors of the NAD hydrolyzing enzyme CD38: Exploration of the 2-position structure-activity relationships” (Bioorg Med Chem, 2018).
# How the values were obtained:
# [1] = molecular target: T1, ADP-ribosyl cyclase/cyclic ADP-ribose hydrolase 1 (Homo sapiens, UniProt P28907); test: Inhibition of recombinant human CD38 extracellular domain expressed in Pichia pastoris using NAD as substrate pretreated for 30 mins followed by substrate addition measured after 15 to 45 mins
# T1 sequence (P28907 whole entry): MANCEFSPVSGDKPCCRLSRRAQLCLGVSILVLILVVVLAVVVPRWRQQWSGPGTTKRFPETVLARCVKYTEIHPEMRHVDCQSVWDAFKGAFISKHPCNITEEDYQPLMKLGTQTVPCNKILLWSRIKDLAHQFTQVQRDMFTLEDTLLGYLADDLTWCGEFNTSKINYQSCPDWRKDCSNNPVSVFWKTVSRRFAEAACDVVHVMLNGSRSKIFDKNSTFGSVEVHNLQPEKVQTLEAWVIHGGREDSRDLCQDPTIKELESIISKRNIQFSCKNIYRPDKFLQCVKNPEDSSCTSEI
# [2] = molecular target: Voltage-gated inwardly rectifying potassium channel KCNH2 (Homo sapiens, UniProt Q12809); test: Inhibition of human ERG
# Voltage-gated inwardly rectifying potassium channel KCNH2, sequence (Q12809 whole entry): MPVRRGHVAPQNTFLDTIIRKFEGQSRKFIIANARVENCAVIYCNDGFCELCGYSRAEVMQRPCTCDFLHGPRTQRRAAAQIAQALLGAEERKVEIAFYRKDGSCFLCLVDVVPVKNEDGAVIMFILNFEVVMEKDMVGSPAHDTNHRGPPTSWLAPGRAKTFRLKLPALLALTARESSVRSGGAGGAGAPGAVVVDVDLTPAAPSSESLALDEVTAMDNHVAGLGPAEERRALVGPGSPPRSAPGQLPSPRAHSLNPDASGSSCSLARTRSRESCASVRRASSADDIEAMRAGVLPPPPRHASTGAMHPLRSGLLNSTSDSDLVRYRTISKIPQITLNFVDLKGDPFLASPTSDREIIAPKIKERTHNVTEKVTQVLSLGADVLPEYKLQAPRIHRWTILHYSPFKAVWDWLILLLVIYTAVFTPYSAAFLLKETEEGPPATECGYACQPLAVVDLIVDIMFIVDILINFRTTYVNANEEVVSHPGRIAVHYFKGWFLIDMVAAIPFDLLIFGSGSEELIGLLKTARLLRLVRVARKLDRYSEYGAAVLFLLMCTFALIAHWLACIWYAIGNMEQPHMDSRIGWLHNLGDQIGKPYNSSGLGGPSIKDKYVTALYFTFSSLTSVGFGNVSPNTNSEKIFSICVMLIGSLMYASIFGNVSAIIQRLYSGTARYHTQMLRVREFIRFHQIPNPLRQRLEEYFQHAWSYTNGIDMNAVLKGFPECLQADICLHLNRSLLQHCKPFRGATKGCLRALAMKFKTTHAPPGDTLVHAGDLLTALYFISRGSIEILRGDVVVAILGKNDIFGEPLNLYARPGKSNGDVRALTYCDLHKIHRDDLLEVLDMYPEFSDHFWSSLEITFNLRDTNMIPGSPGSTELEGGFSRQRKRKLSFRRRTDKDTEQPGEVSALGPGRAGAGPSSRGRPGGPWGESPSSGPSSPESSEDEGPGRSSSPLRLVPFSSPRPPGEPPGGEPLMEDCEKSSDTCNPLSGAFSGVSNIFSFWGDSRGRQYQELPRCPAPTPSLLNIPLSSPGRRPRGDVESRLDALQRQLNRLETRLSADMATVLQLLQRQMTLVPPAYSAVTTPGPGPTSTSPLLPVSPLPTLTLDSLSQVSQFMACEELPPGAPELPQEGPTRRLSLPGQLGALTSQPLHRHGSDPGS
# [3] = molecular target: Cytochrome P450 3A4 (Homo sapiens, UniProt P08684); test: Inhibition of CYP3A4 (unknown origin); type: ADME
# Cytochrome P450 3A4, sequence (P08684 whole entry): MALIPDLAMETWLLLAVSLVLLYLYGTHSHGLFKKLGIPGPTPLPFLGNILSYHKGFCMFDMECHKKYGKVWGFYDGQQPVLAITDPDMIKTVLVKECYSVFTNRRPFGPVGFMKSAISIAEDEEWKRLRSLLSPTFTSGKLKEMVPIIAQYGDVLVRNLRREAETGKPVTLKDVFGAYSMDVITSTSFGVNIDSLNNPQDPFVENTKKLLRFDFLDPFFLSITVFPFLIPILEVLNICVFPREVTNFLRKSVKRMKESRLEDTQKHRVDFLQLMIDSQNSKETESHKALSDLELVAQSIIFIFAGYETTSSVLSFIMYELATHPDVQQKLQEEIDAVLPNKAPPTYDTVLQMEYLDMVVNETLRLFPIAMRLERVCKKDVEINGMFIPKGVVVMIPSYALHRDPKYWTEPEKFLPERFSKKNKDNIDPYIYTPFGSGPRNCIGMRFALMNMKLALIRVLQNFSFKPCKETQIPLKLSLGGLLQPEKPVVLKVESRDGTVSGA
# [4] = Permeability of the compound by PAMPA; type: ADME; conditions: read-out: permeability
# [5] = Aqueous solubility of the compound in FaSSIF; type: physicochemical
# [6] = Half life in mouse at 2 mg/kg, iv; type: ADME, organism-based; conditions: in vivo
# [7] = Clearance in mouse at 2 mg/kg, iv; type: ADME, organism-based; conditions: in vivo
# [8] = Volume of distribution at steady state in mouse at 2 mg/kg, iv; type: ADME, organism-based; conditions: in vivo, read-out: Vdss
# [9] = Oral bioavailability in mouse at 30 mg/kg; type: ADME, organism-based; conditions: in vivo
# [10] = tested on: Mus musculus; test: Dose normalized AUC in mouse at 30 mg/kg, po; type: ADME, organism-based; conditions: in vivo
# [11] = Lipophilicity, log D of the compound by chromatographic method; type: physicochemical
Compound,IC50 [1] [nM],also measured
NC(=O)c1cccc2c(NCc3c(F)cccc3C(F)(F)F)nc(NCc3cn[nH]c3)nc12,450,
C[C@@H]1c2n[nH]cc2CN1C1=NC(NCc2c(F)cccc2C(F)(F)F)c2cccc(C(N)=O)c2N1 (some centres not stated),51,IC50 [2]: 3.16 µM; IC50 [3]: 158 nM; Papp [4]: 14.7 ×10⁻⁶ cm/s; solubility [5]: 34 µg/mL; half-life [6]: 84 min; clearance [7]: 37 mL/min/kg; Vd [8]: 2.7 L/kg; bioavailability [9]: 69%; AUC/dose [10]: 327 ng·h/mL/(mg/kg)
Cc1n[nH]cc1CNc1nc(NCc2c(F)cccc2C(F)(F)F)c2cccc(C(N)=O)c2n1,620,
CC[C@H]1c2[nH]ncc2CN1C1=NC(NCc2c(F)cccc2C(F)(F)F)c2cccc(C(N)=O)c2N1 (some centres not stated),370,
CCc1n[nH]c2c1CN(C1=NC(NCc3c(F)cccc3C(F)(F)F)c3cccc(C(N)=O)c3N1)C2 (configuration not stated),83,
Cc1cc(NCc2c(F)cccc2C(F)(F)F)c2cccc(C(N)=O)c2n1,,chromatographic logD [11]: 5.1
C[C@@H]1c2[nH]nc(N)c2CN1C1=NC(NCc2c(F)cccc2C(F)(F)F)c2cccc(C(N)=O)c2N1 (some centres not stated),45,
Cc1n[nH]c2c1CN(C1=NC(NCc3c(F)cccc3C(F)(F)F)c3cccc(C(N)=O)c3N1)C2 (configuration not stated),42,IC50 [2]: 12.6 µM; IC50 [3]: 631 nM
NC(=O)c1cccc2c(NCc3c(F)cccc3C(F)(F)F)nc(N3CCc4[nH]ncc4C3)nc12,630,
CC(=O)c1n[nH]c2c1CN(C1=NC(NCc3c(F)cccc3C(F)(F)F)c3cccc(C(N)=O)c3N1)C2 (configuration not stated),140,
NC(=O)c1cccc2c(NCc3c(F)cccc3C(F)(F)F)nc(NCc3ccn[nH]3)nc12,2300,
C[C@H]1c2cn[nH]c2CN1C1=NC(NCc2c(F)cccc2C(F)(F)F)c2cccc(C(N)=O)c2N1 (some centres not stated),2500,
C[C@H]1c2n[nH]cc2CN1C1=NC(NCc2c(F)cccc2C(F)(F)F)c2cccc(C(N)=O)c2N1 (some centres not stated),410,
NC(=O)c1cccc2c(NCc3c(F)cccc3C(F)(F)F)nc(NCc3nnn[nH]3)nc12,8000,
NC(=O)c1cccc2c1NC(N1Cc3[nH]nc(N)c3C1)=NC2NCc1c(F)cccc1C(F)(F)F (configuration not stated),110,
C[C@@H](O)c1n[nH]c2c1CN(C1=NC(NCc3c(F)cccc3C(F)(F)F)c3cccc(C(N)=O)c3N1)C2 (some centres not stated),230,solubility [5]: 11 µg/mL
C[C@H]1c2[nH]nc(N)c2CN1C1=NC(NCc2c(F)cccc2C(F)(F)F)c2cccc(C(N)=O)c2N1 (some centres not stated),310,
Cn1cc2c(n1)CN(C1Nc3c(C(N)=O)cccc3C(NCc3c(F)cccc3C(F)(F)F)N1)C2 (configuration not stated),160,
Cn1ncc2c1CN(C1=NC(NCc3c(F)cccc3C(F)(F)F)c3cccc(C(N)=O)c3N1)C2 (configuration not stated),82,solubility [5]: 2 µg/mL
NC(=O)c1cccc2c(NCc3c(F)cccc3C(F)(F)F)cc(NCc3cn[nH]c3)nc12,72,
NC(=O)c1cccc2c(NCc3c(F)cccc3C(F)(F)F)nc(NCc3c[nH]cn3)nc12,1600,

Compound,IC50 [1] [nM],also measured
C[C@H](O)c1n[nH]c2c1CN(C1=NC(NCc3c(F)cccc3C(F)(F)F)c3cccc(C(N)=O)c3N1)C2 (some centres not stated),110,solubility [5]: 12 µg/mL
NC(=O)c1cccc2c1NC(N1Cc3c(N)n[nH]c3C13CCCC3)=NC2NCc1c(F)cccc1C(F)(F)F (configuration not stated),17,
NC(=O)c1cccc2c1NC(N1CCCc3cn[nH]c3C1)=NC2NCc1c(F)cccc1C(F)(F)F (configuration not stated),19000,
NC(=O)c1cccc2c(NCc3c(F)cccc3C(F)(F)F)nc(NCc3ccon3)nc12,5500,
Cc1n[nH]c2c1CN(C1=NC(NCc3c(F)cccc3C(F)(F)F)c3cccc(C(N)=O)c3N1)[C@H]2C (some centres not stated),170,
NC(=O)c1cccc2c1NC(N1Cc3[nH]nc(C(F)(F)F)c3C1)=NC2NCc1c(F)cccc1C(F)(F)F (configuration not stated),4100,
Cc1n[nH]c2c1CN(C1=NC(NCc3c(F)cccc3C(F)(F)F)c3cccc(C(N)=O)c3N1)[C@@H]2C (some centres not stated),21,
NC(=O)c1c(C(F)(F)F)ccc2c(NCc3c(F)cccc3C(F)(F)F)nc(NCc3ncco3)nc12,4200,
CN(Cc1ccn[nH]1)c1nc(NCc2c(F)cccc2C(F)(F)F)c2cccc(C(N)=O)c2n1,1900,
CC[C@@H]1c2[nH]ncc2CN1C1=NC(NCc2c(F)cccc2C(F)(F)F)c2cccc(C(N)=O)c2N1 (some centres not stated),71,
C[C@@H]1c2cn[nH]c2CN1C1=NC(NCc2c(F)cccc2C(F)(F)F)c2cccc(C(N)=O)c2N1 (some centres not stated),330,
NC(=O)c1cccc2c1NC(N1Cc3c(N)n[nH]c3C13CC3)=NC2NCc1c(F)cccc1C(F)(F)F (configuration not stated),4,chromatographic logD [11]: 3.9
NC(=O)c1cccc2c(NCc3c(F)cccc3C(F)(F)F)nc(NCc3cnco3)nc12,3400,
NC(=O)c1cccc2c1NC(N1Cc3[nH][nH]c(=O)c3C1)=NC2NCc1c(F)cccc1C(F)(F)F (configuration not stated),1600,
NC(=O)c1cccc2c(NCc3c(F)cccc3C(F)(F)F)nc(NCc3ncc[nH]3)nc12,6800,
NC(=O)c1cccc2c(NCc3c(F)cccc3C(F)(F)F)nc(N3CCc4cn[nH]c4C3)nc12,1900,
NC(=O)c1cccc2c(NCc3c(F)cccc3C(F)(F)F)nc(NCc3nc[nH]n3)nc12,4300,
NC(=O)c1cccc2c1NC(N1Cc3c(N)n[nH]c3C13CCC3)=NC2NCc1c(F)cccc1C(F)(F)F (configuration not stated),7.8,
NC(=O)c1cccc2c(NCc3c(F)cccc3C(F)(F)F)nc(N3Cc4cn[nH]c4C3)nc12,92,solubility [5]: 6 µg/mL
CC1(C)c2[nH]nc(N)c2CN1C1=NC(NCc2c(F)cccc2C(F)(F)F)c2cccc(C(N)=O)c2N1 (configuration not stated),20,
